Assay results: patent publication US11725036B2, “Modified lipidated relaxin B chain peptides and their therapeutic use” (Sanofi, priority 2018, dated 2023)
Values after ≈ are worked out from the molar mass of the structure shown. Read-outs that look alike come from different tables or passages of the source. Starred links: 1 amine or outer side, 2 acyl side, 3 side chain; linkers in the order of their positions; H or OH if unused. Non-standard residues stand in square brackets, D forms with d. Residues, ends and D or L forms follow the SMILES beside them. Groups on a side chain read outwards from the residue. *: point of attachment. X3 = CCCCCCCCCCCCCCCCCC(=O)N[C@@H](CCC(=O)N[C@@H](CCC(=O)N[C@@H](CCC(=O)NCCCOCCOCCOCCCNC(=O)CCC(=O)NCCCOCCOCCOCCCNC(=O)CCC(=O)NCCCOCCOCCOCCCN*)C(=O)O)C(=O)O)C(=O)O; X1 = CCCCCCCCCCCCCCCC(=O)N[C@@H](CCC(=O)N[C@@H](CCC(=O)N[C@@H](CCC(=O)NCCCOCCOCCOCCCNC(=O)CCC(=O)NCCCOCCOCCOCCCNC(=O)CCC(=O)NCCCOCCOCCOCCCN*)C(=O)O)C(=O)O)C(=O)O; Suc = O=C(CCC(=O)[*:2])[*:1]; αMeK = C[C@](N)(CCCCN)C(=O)O; Aib = CC(C)(N)C(=O)O

How the values were obtained:
Stability in rat plasma = assay type: in vitro ADME; conditions: for Rat plasma stability % remaining: T = 0, 37° C., 5 μM
Method: (§1) Prior to the testing of stability in plasma (or blood) of a peptide batch, its purity (HPLC-UV) was determined.
(§2) Rat and Human plasma: anti-coagulant sodium or lithium heparin.
(§3) 100 μM solution of study compound in 50 mM phosphate buffer pH 7.4.
(§4) 950 μL plasma (or blood) was pre-incubated for 5 min at 37° C. 50 μL of compound stock solution was added. Final compound concentration=5 μM. Vortex and transfer 150 μL plasma (or blood) into an Eppendorf for each time point. The time points […] were carried out in duplicate for each species.
(§5) After incubation, 150 μL plasma (or blood) was extracted with 600 μL Acetonitrile containing 1% TFA. Said mixture was then vortexed and centrifuged 10 min at 14600 rpm. 200 μL supernatant was dried under N2. Sample was then reconstituted in 200 μL of H2O/CH3CN 98/2+0.1% FA+50 ng/ml Labetalol and analyzed using the analytical system used in solubility and stability studies.
(§6) For determination of the amount of the remaining peptide, the peak areas of the target compound at t0 and each time point […] were compared, resulting in “% remaining peptide”, following the equation: % remaining peptide=[(peak area peptide time)×100]/peak area peptide t0. The stability was expressed as “% remaining peptide”.

[1] = Stability in human plasma; assay type: in vitro ADME; conditions: for Human Plasma stability % remaining: T = 0, 37° C., 5 μM
Method: as §1, §2, §3, §4, §5, §6

RXFP1 = molecular target: T1, RXFP1 (Homo sapiens, UniProt Q9HBX9); assay: OVCAR5 cAMP assay (HTRF); assay type: cell-based; conditions: for EC50: OVCAR 5 cells expressing endogenous RXFP1, cAMP readout; for Emax: OVCAR 5 cells, maximal cAMP relative to H2-relaxin
T1 construct: OVCAR5 cells expressing endogenous RXFP1; endogenous in cells; host or cells: OVCAR5
T1 sequence (Q9HBX9 1-757): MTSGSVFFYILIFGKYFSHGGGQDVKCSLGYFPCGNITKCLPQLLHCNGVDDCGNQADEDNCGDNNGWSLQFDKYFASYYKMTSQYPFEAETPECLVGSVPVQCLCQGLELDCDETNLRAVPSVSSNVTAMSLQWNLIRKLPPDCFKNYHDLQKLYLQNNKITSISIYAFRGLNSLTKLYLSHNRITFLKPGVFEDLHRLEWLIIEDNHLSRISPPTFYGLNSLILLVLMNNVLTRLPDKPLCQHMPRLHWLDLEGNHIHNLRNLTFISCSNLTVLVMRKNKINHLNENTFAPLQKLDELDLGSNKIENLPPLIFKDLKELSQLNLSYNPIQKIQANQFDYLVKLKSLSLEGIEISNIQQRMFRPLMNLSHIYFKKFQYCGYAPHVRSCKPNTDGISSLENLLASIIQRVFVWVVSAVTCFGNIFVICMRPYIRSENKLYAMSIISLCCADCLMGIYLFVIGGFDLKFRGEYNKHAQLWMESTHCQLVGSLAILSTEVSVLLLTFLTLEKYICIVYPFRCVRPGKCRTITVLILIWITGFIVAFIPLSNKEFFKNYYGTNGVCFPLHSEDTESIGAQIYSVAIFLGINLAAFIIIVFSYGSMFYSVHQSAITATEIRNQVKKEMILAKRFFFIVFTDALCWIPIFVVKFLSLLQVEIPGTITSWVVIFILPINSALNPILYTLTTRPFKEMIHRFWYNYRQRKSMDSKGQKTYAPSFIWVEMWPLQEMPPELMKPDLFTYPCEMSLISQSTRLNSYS
How it was run: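 Peptide agonism measured as intracellular cAMP (HTRF) after 30 min at 37° C in serum-free medium, following 40 min 1 mM IBMX preincubation of OVCAR5 cells. Nonlinear regression gave EC50; Emax % = 100 × compound maximal cAMP / H2-relaxin maximal cAMP.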

in vivo = assay: in vivo; set-up: species or system Sprague Dawley rats; conditions: Sprague Dawley, rat; for C0 / half-life: iv, 1 mg/kg; for bioavailability / Cmax / Tmax: sc; for Cmax / Tmax: 3 mg/kg
Method: Prior to the testing of a peptide batch, its purity (HPLC-UV) was determined. Dose was corrected for presence of salts, solvent and purity. Bioanalytical screening method for quantification of peptides in rat: Sprague Dawley rats were dosed with study peptide at a dose of 1 mg/kg intravenously (i.v.) or 3 mg/kg subcutaneously (s.c.) as a solution in PBS (0.2 mg/ml and 0.6 mg/ml respectively). Blood samples were collected after: 0.083, 0.25, 0.5, 1, 2, 4, 8, 24, 48 and 72 h (i.v. route) and 0.25, 0.5, 1, 2, 4, 6, 8, 10, 24, 48 and 72 h (s.c route) post application. Plasma samples were analyzed after protein precipitation via liquid chromatography mass spectrometry (LC/MS). PK parameters and half-life were calculated using Phoenix 64 (WinNonlin 6.4)-Pharsight (Certara™) (non-compartment model). Values below the limit of quantification (BLQ) were replaced by zero for subsequent calculations and PK analysis. T½: in-vivo half-life, time required for test compound plasma concentration to be divided by two during the PK experiment. C0: Extrapolated test compound plasma concentration at t=0 time point (i.v. route). Cmax: maximal test compound plasma concentration at the indicated time point (s.c. route). Tmax: Time point where Cmax was attained. F %: s.c. vs i.v. bioavailability, dose-corrected area under curve (AUC) s.c. route divided by AUC i.v.

[2] = Solubility testing in buffer; assay type: physicochemical; conditions: target solubility 10.0 mg/ml
[3] = acetate buffer 50 mM pH 4.5, read-out: Solubility Acetate buffer pH 4.5
[4] = phosphate buffer 50 mM pH 7.4, read-out: Solubility phosphate buffer pH 7.4

Row | Rat plasma stability % remaining (Stability in rat plasma) [%] | Human Plasma stability % remaining [1] [%] | EC50 (RXFP1) [nM] | Emax (RXFP1) [%] | C0 (in vivo) [µM] | half-life (in vivo) [h] | bioavailability (in vivo) [%] | Cmax (in vivo) [µM] | Tmax (in vivo) [h] | solubility [2, 3] [mg/mL] | solubility [2, 4] [mg/mL] | remaining at 1 h, 5 μM (Stability in rat plasma; rat, plasma (sodium or lithium heparin), 1 h, 37° C.) [%] | remaining at 4 h, 5 μM (Stability in rat plasma; rat, plasma (sodium or lithium heparin), 4 h, 37° C.) [%] | remaining at 1 h, 5 μM ([1]; human, plasma (sodium or lithium heparin), 1 h, 37° C.) [%] | remaining at 4 h, 5 μM ([1]; human, plasma (sodium or lithium heparin), 4 h, 37° C.) [%] | Compound
1 | 100 | 100 | – | – | – | – | – | – | – | – | – | – | – | – | – | Ac-VIKLSGRELVRAQIAISGMSTWSKKKK-NH2 [KKKK(AcB7-29 C11.23S), reference compound]
2 | – | – | 0.18 | 93 | 4.91 | 4.89 | 65 | 2.07 | 6 | 9.26 (≈ 2080 µM) | 8.84 (≈ 1980 µM) | – | – | – | – | CCCCCCCCCCCCCCCC(=O)N[C@@H](CCC(=O)N[C@@H](CCC(=O)N[C@@H](CCC(=O)NCCCOCCOCCOCCCNC(=O)CCC(=O)NCCCOCCOCCOCCCNC(=O)CCC(=O)NCCCOCCOCCOCCCNC(=O)CCC(=O)NCCCC[C@H](NC(=O)CNC(=O)[C@H](CCC(=O)O)NC(=O)C(C)(C)NC(=O)C(C)(C)NC(=O)[C@@H](NC(=O)[C@H](CCCCNC(C)=O)NC(=O)[C@H](C)NC(=O)[C@H](CCCNC(=N)N)NC(=O)[C@@H](NC(=O)[C@H](CCCNC(=N)N)NC(=O)[C@H](CCC(=O)O)NC(=O)[C@H](CCCNC(=N)N)NC(=O)CNC(=O)[C@H](CCC(=O)O)NC(=O)[C@H](CC(C)C)NC(C)=O)C(C)C)[C@@H](C)CC)C(=O)N[C@@H](CO)C(=O)N[C@H](C(=O)N[C@@H](Cc1c[nH]c2ccccc12)C(=O)N[C@@H](CO)C(=O)NC(C)(C)C(=O)N[C@@H](CCCNC(=N)N)C(=O)N[C@@H](CCCNC(=N)N)C(=O)N[C@@H](CCCCNC(C)=O)C(N)=O)[C@@H](C)O)C(=O)O)C(=O)O)C(=O)O [compound 55] (Ac-LEGRERVRAK(Ac)I[Aib][Aib]EGK([Suc-X1])STWS[Aib]RRK(Ac)-NH2)
3 | 77 | 92 | 0.07 | 95 | 4.16 | 6.34 | 61 | 1.53 | 10 | 11.5 (≈ 2610 µM) | 11.8 (≈ 2700 µM) | 100 | 66 | 94 | 87 | CCCCCCCCCCCCCCCCCC(=O)N[C@@H](CCC(=O)N[C@@H](CCC(=O)N[C@@H](CCC(=O)NCCCOCCOCCOCCCNC(=O)CCC(=O)NCCCOCCOCCOCCCNC(=O)CCC(=O)NCCCOCCOCCOCCCNC(=O)CCC(=O)NCCCC[C@H](NC(=O)CNC(=O)[C@H](CCC(=O)O)NC(=O)C(C)(C)NC(=O)C(C)(C)NC(=O)[C@@H](NC(=O)[C@H](CCCCNC(C)=O)NC(=O)[C@H](C)NC(=O)[C@H](CCCNC(=N)N)NC(=O)[C@@H](NC(=O)[C@H](CCCCN)NC(=O)[C@H](CCC(=O)O)NC(=O)[C@H](CCCNC(=N)N)NC(=O)CNC(=O)[C@H](CCC(=O)O)NC(=O)[C@H](CC(C)C)NC(C)=O)C(C)C)[C@@H](C)CC)C(=O)N[C@@H](CO)C(=O)N[C@H](C(=O)N[C@@H](Cc1ccccc1)C(=O)N[C@@H](CO)C(=O)N[C@@](C)(CCCCN)C(=O)N[C@@H](CCCNC(=N)N)C(=O)N[C@@H](C)C(=O)N[C@@H](CCCCNC(C)=O)C(N)=O)[C@@H](C)O)C(=O)O)C(=O)O)C(=O)O [compound 7] (Ac-LEGREKVRAK(Ac)I[Aib][Aib]EGK([Suc-X3])STFS[αMeK]RAK(Ac)-NH2)
